We go through 1 molecule from article PMC6934184, “Selective DNA-PKcs inhibition extends the therapeutic index of localized radiotherapy and chemotherapy” (The Journal of Clinical Investigation, 2019).

In the assay the target is T1, ZAK (Homo sapiens, UniProt Q9NYL2).
T1 construct: purchased Thermo Fisher Scientific (Life Technologies) SelectScreen
Description: SelectScreen LanthaScreen. Type of assay: binding. Particulars: read-out: % displacement. The procedure, abridged:
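Percent values come from Thermo SelectScreen profiling of NU5455, combining activity and binding assays. CSF1R was run in Z'LYTE format at Km app ATP, and CAMK1 in Adapta format with ATP listed at 10.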
(In general: TR-FRET usually uses a lanthanide donor and a delayed reading to cut background.)

T1 sequence (Q9NYL2 whole entry): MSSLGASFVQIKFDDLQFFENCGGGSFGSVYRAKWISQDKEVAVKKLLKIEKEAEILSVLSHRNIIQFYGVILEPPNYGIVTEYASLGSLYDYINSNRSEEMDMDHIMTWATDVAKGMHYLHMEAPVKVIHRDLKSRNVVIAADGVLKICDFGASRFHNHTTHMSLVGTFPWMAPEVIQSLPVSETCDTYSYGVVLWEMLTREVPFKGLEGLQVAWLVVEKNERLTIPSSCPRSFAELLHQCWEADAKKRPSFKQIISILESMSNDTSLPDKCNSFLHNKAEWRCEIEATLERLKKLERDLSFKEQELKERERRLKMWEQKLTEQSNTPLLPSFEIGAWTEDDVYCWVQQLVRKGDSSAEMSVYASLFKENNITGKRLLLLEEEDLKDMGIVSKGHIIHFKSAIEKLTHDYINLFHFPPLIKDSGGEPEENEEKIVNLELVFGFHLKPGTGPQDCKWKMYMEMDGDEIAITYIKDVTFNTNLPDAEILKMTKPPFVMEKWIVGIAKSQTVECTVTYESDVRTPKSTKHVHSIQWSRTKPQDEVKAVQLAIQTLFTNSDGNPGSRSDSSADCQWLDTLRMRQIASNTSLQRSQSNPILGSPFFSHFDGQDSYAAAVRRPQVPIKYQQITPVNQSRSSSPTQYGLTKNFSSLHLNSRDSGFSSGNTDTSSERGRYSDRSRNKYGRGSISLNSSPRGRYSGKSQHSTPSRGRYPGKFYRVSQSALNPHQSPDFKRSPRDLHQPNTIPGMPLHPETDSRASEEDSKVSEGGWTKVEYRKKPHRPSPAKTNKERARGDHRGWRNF

Turning to `CN(C(=O)CN1CCOCC1)c1ccc2sc3c(-c4cccc5c(=O)cc(N6CC7CCC(C6)O7)oc45)cccc3c2c1` [NU5455], the inhibition at 1 µM is -0.7%.
